Results: patent publication US20080139664A1, “ANTI-GLYCATION AGENTS FOR PREVENTING AGE-, DIABETES-, AND SMOKING-RELATED COMPLICATIONS” (NATIONAL RESEARCH COUNCIL OF CANADA, priority 2001, published 2008)
Where two headings read alike, the source gives them in different places.

Assays:
[1] = test system: bovine serum albumin (BSA); assay: SDS-PAGE assessment of BSA-BSA protein cross-links; type: biochemical; details: mixtures further incubated for 4 weeks; also: key: ++: strongly suppressed; +: suppressed; −: no suppression; *: moderate acceleration of the cross-linking
Description: Additionally, protein cross-links were semi-quantitatively assessed by SDS PAGE gel chromatography.
Protein-protein cross-links were characterized by SDS-PAGE. The incubation mixtures used for determination of the amino groups were further incubated for 4 weeks. An aliquot of the solution was applied to Pharmacia SDS FAST gel and the proteins were stained with Coomassie blue.

[2] = test system: bovine serum albumin (BSA); assay: Fluorescamine assay of free primary amino groups of BSA incubated with D-ribose; type: biochemical; details: for Unreacted amino group: free primary amino group on BSA after 5 days at 37° C., agent at 16.8 times IC50, 64% without agent
Description: Fluorescamine assay (Yeboah F. et al., J. Agric. Food Chem. 48, 2766-2774 (2000)) was performed on incubated mixtures of BSA and D-ribose, with or without the identified anti-glycation agents. The mixtures contained BSA (0.075 mM protein concentration or 4.53 mM of Lys residue concentration) and D-ribose (50 mM). […] The fluorescamine assay determines the number of free lysine residues of BSA. In this experiment, the final volume of the incubation mixtures was 10 mL and the incubation time was 5 days at 37° C. Prior to the fluorescamine assay, the proteins were isolated by reverse phase HPLC. The protein content was determined using the Bio-Rad protein determination reagent (Bradford method). The fluorescamine assay was done in triplicate.

[3] = test system: lysozyme; assay: ESI-MS of lysozyme glycoforms after incubation with D-ribose;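 also: lysozyme incubated with D-ribose, with or without anti-glycation agents, then separated by reversed-phase HPLC and analysed by electrospray mass spectrometry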
[4] = test system: bovine serum albumin (BSA)
Description: (§1) During the glycation reaction between proteins and reducing sugars, a specific fluorescence with excitation and emission wavelength of 370 nm and 440 nm, respectively, is observed. […] The assay was based on the progressive development of the characteristic Maillard fluorescence (370 nm Ex and 440 nm Em) during the progress of the glycation reaction.
(§2) The final assay volume was 200 μl and each assay well contained 0.075 mM BSA, and 50 mM D-ribose. Compounds were assayed at 3 different concentration levels (0.003, 0.03, and 0.3 mg/mL) to determine the effect of concentration on inhibition. Samples were incubated for 5 days.
(§3) The Maillard fluorescence was directly measured from the reaction solution, except for the anti-glycants that quenched the Maillard fluorescence, which were analyzed by the earlier-described HPLC method.
(§4) Solutions were incubated in microtitre plates (96 wells) at 37° C. for 5 days in a closed system.
(§5) After one hour incubation at 37° C., fluorescence readings were taken.
(§6) The IC50 values of the compounds that quenched the fluorescence of the glycated BSA were analyzed by on-line monitoring of the fluorescence of the glycated BSA separated from the fluorescence quenching assay compound by RP-HPLC. The elution profile was monitored by UV-diode array and by fluorescence (λex=370 nm, λem=440 nm). […] The incubation conditions were the same as above.

[5] = test system: bovine serum albumin (BSA); assay: Maillard fluorescence-based assay of AGEs formation, IC50 determination (BSA + D-ribose); details: inhibition of Maillard fluorescence development; 0.075 mM BSA, 50 mM D-ribose, 37° C., 5 days
Description: as §1, §2, §3, §4, §5, §6

[6] = lysozyme + 2D-ribose − 2H2O (14,569 Da), 37° C., 5 days
[7] = lysozyme + 2D-ribose − 3H2O (14,551 Da), 37° C., 5 days
[8] = lysozyme + 2D-ribose − 5H2O (14,533 Da), 37° C., 5 days
[9] = lysozyme + 2D-ribose − 6H2O (14,515 Da), 37° C., 5 days
[10] = lysozyme + D-ribose − 2H2O (14,419 Da), 37° C., 5 days
[11] = lysozyme + D-ribose − 3H2O (14,401 Da), 37° C., 5 days
[12] = lysozyme + D-ribose − H2O (14,437 Da), 37° C., 5 days
[13] = lysozyme + D-ribose − H2O with one carboxymethylated Lys residue (14,496 Da), 37° C., 5 days
[14] = lysozyme with one carboxymethylated Lys residue (14,364 Da), 37° C., 5 days
[15] = unmodified lysozyme (14,305 Da), 37° C., 5 days
[16] = FIG. 2, in words, 37° C., 5 days

Compound	Suppression of BSA-BSA cross-links [1]	Unreacted amino group [2] [%]	Peak area as % of total area of all glycoforms, 14,569 [3, 6] [%]	Peak area as % of total area of all glycoforms, 14,551 [3, 7] [%]	Peak area as % of total area of all glycoforms, 14,533 [3, 8] [%]	Peak area as % of total area of all glycoforms, 14,515 [3, 9] [%]	Peak area as % of total area of all glycoforms, 14,419 [3, 10] [%]	Peak area as % of total area of all glycoforms, 14,401 [3, 11] [%]	Peak area as % of total area of all glycoforms, 14,437 [3, 12] [%]	Peak area as % of total area of all glycoforms, 14,496 [3, 13] [%]	Peak area as % of total area of all glycoforms, 14,364 [3, 14] [%]	Peak area as % of total area of all glycoforms, 14,305 [3, 15] [%]	IC50 [4] [µM]	IC50 [5] [µM]	also measured
CC(C)NC[C@@H](O)c1ccc(O)c(O)c1 [D-Isoproterenol]	+	68	1.4	0.2	0.5	0.0	1.8	0.8	13.7	0.6	4.7	76.2	–	–	–
CNC[C@H](O)c1ccc(O)c(O)c1 [L-Epinephrine]	++	69	1.7	0.0	0.0	0.0	2.0	0.8	15.3	1.0	4.8	74.5	18	–	amount of (AP-H2O) glycoform of lysozyme [3, 16]: reduced; amount of AP glycoform of lysozyme [3, 16]: reduced
CN1CCCN=C1/C=C/c1cccc(O)c1 [Oxantel]	+	55	3.1	2.0	1.7	1.1	5.6	3.7	17.4	1.7	5.4	57.7	600	–	–
NC[C@@H](O)c1ccc(O)c(O)c1 [L-Norepinephrine]	+	70	1.2	0.0	0.0	0.0	2.4	2.3	12.0	0.9	5.3	75.9	–	–	–
O=C1c2c(O)ccc(O)c2C(=O)c2c(NCCNCCO)ccc(NCCNCCO)c21 [Mitoxantrone]	+	50	5.9	3.6	1.3	0.8	6.5	1.9	25.2	1.0	1.6	49.8	630	–	–
CC(C)NC[C@H](O)c1ccc(O)c(O)c1 [L-Isoproterenol]	+	73	2.2	0.8	1.0	0.9	2.3	2.5	16.5	1.4	5.3	67.0	–	–	effect on protection of amino groups of BSA ([2]; in words): protect the amino group against glycation
O=[N+]([O-])c1ccc(O)c2ncccc12 [Nitroxoline]	–	76	1.4	2.1	1.2	1.2	7.8	3.3	11.0	1.0	4.2	66.7	–	300	–
Oc1cc(O)c2c(c1)O[C@H](c1ccc(O)c(O)c1)[C@H](O)C2 [(−)-Epicatechin]	–	57	1.7	0.0	0.0	0.0	2.6	0.0	17.6	0.0	1.8	76.3	–	58	–
Oc1cccc2cccnc12 [8-Hydroxyquinoline]	+	55	–	–	–	–	–	–	–	–	–	–	95	–	Peak area as % of total area of all glycoforms, 14,305 [3]: 67.8%; Peak area as % of total area of all glycoforms, 14,364 [3]: 4.2%; Peak area as % of total area of all glycoforms, 14,401 [3]: 5.8%; Peak area as % of total area of all glycoforms, 14,419 [3]: 3.6%; Peak area as % of total area of all glycoforms, 14,437 [3]: 9.0%; Peak area as % of total area of all glycoforms, 14,496 [3]: 1.7%; Peak area as % of total area of all glycoforms, 14,515 [3]: 1.7%; Peak area as % of total area of all glycoforms, 14,533 [3]: 1.6%; Peak area as % of total area of all glycoforms, 14,551 [3]: 1.5%; Peak area as % of total area of all glycoforms, 14,569 [3]: 2.3%
Oc1cc(O)c2c(c1)O[C@H](c1ccc(O)c(O)c1)[C@@H](O)C2 [(+)-Catechin]	–	66	2.8	1.4	1.2	0.0	4.0	0.0	19.7	0.0	2.0	68.9	–	19	–
O=S(=O)(O)c1ccc(O)c2ncccc12 [8-Hydroxyquinoline-5-sulfonic acid]	++	76	5.2	0.9	1.0	0.5	3.2	2.0	27.9	0.0	0.7	58.0	560	–	–
O=c1cc(-c2ccccc2O)oc2cc(O)cc(O)c12 [5,7,2′-Trihydroxyflavone]	–	53	4.3	4.8	2.3	1.7	9.3	1.6	19.8	0.0	5.8	46.7	–	220	–
